Assay results published in patent publication US20240099304A1, “SYNERGISTIC HERBICIDAL COMPOSITIONS OF METAMIFOP” (Parijat Industries (India) Private Limited, priority 2021, published 2024).

Assays:
Assay type in all cases: in vivo
[1] = tested on: Echinochloa crusgalli; assay: Field efficacy on grass weed in soybean, post-emergence foliar application
Experimental: (§1) As described in the Herbicide Handbook of the Weed Science Society of America, Ninth Edition, 2007, p. 429, “synergism” [is] an interaction of two or more factors such that the effect when combined is greater than the predicted effect based on the response to each factor applied separately. In the Colby method, the expected (or predicted) response of a combination of herbicides is calculated by taking the product of the observed response for each individual component of the combination when applied alone divided by 100 and subtracting this value from the sum of the observed response for each component while applied alone. An unexpected enhancement in efficacy of the combination is then determined by comparing the observed response of the combination to the expected (or predicted) response as calculated from the observed response of each individual component alone. If the observed response of the combination is greater than the expected (or predicted) response, or stated conversely, if the difference between the observed and expected response is greater than zero, then the combination is said to be synergistic or unexpectedly effective. (Colby, S. R., Weeds, 1967(15), p. 20-22). The Colby method required only a single dose of each herbicide applied alone and the mixture of both doses.
(§2) Synergy Study: The following formula was used to calculate the expected activity of mixtures containing active ingredients, A and B:
(§3) • A=Observed efficacy of active ingredient (combination of Metamifop and Imidazolinone herbicides) A at the same concentration as used in the mixture. • B=observed efficacy of active ingredient B at the same concentration as used in the mixture. However, following formula was used to calculate the expected activity of mixtures containing three active ingredients, A, B and C:
(§4) • A=observed efficacy of active ingredient (combination of Metamifop and Imidazolinone herbicides) A at the same concentration as used in the mixture. • B=observed efficacy of active ingredient B at the same concentration as used in the mixture. • C=observed efficacy of active ingredient C at the same concentration as used in the mixture.
(§5) EFFICACY STUDY: The field experiments were carried out to test the synergy of the combination Metamifop, Imazethapyr, and Imazamox in India at various locations like in MP, Maharashtra, Karnataka, and Telangana on farmer's field against soybean weeds during Kharif season. The experiment comprising of 15 treatments including premixed binary and ternary combinations along with their stand-alone molecule using a randomized block design replicated thrice. All the treatments were applied as post-emergence foliar application when the weeds reached to two to four leaf stage. The spray was conducted with the help of Battery-operated Knapsack sprayer. The percentage efficacy was calculated after 14 and 21 days after application of herbicides.
(§6) The weeds present in the experimental fields were echinochloa conola, echinochloa crusgalli, brachiaria euriciformis, rottboellia cochinchinensis, cynodon dactylon, parthenium hyterophorus, digera arvensis, cynotis axillaris, acalypha indica, Commelina benghalensis, celosia argentia, cyperus spp.

[2] = tested on: Rottboellia cochinchinensis; assay: as above
Experimental: as §1, §2, §3, §4, §5, §6

[3] = tested on: Brachiaria eruciformis; assay: as above
Experimental: as §1, §2, §3, §4, §5, §6

[4] = tested on: hard to kill broad leaf weeds; assay: Field efficacy, summary on broad leaf weeds
Experimental: as §1, §5

[5] = tested on: Cyanotis axillaris; assay: Field efficacy on broad leaf weed in soybean, post-emergence foliar application
Experimental: as §1, §2, §3, §4, §5, §6

[6] = tested on: Parthenium hysterophorus; assay: as above
Experimental: as §1, §2, §3, §4, §5, §6

[7] = tested on: Commelina benghalensis; assay: as above
Experimental: as §1, §2, §3, §4, §5, §6

[8] = tested on: Soybean; assay: Phytotoxicity in Soybean, visual grading on 0-10 scale; parameters: key: visual phytotoxicity grade on 0-10 scale; settings: Soybean
Experimental: as §5
Phytotoxic effect of herbicidal combination of Metamifop, Imazethapyr and Imazamox in soyabean: Table 5, 10 show the visual observations and grading on phytotoxicity which was recorded for leaf injury on tip/surface, Epinasty/Hyponasty, and wilting etc. on 0-10 scale (as below) at 1, 3, 7, 14 and 21 days after application of the present herbicidal composition.

## COCc1cnc(C2=NC(C)(C(C)C)C(=O)N2)c(C(=O)O)c1 (centres unmarked) [Imazamox]
[1]; 14 DAA, Imazamox 20 gm ai/ha
  % Weed control burn down symptoms generation Observed: 0%
[1]; 14 DAA, Imazamox 30 gm ai/ha
  % Weed control burn down symptoms generation Observed: 0%
[1]; 14 DAA, Imazamox 35 gm ai/ha
  % Weed control burn down symptoms generation Observed: 0%
[1]; 21 DAA, Imazamox 20 gm ai/ha
  % Weed control burn down symptoms generation Observed: 0%
[1]; 21 DAA, Imazamox 30 gm ai/ha
  % Weed control burn down symptoms generation Observed: 0%
[1]; 21 DAA, Imazamox 35 gm ai/ha
  % Weed control burn down symptoms generation Observed: 0%
[2]; 14 DAA, Imazamox 20 gm ai/ha
  % Weed control burn down symptoms generation Observed: 0%
[2]; 14 DAA, Imazamox 30 gm ai/ha
  % Weed control burn down symptoms generation Observed: 0%
[2]; 14 DAA, Imazamox 35 gm ai/ha
  % Weed control burn down symptoms generation Observed: 0%
[2]; 21 DAA, Imazamox 20 gm ai/ha
  % Weed control burn down symptoms generation Observed: 0%
[2]; 21 DAA, Imazamox 30 gm ai/ha
  % Weed control burn down symptoms generation Observed: 0%
[2]; 21 DAA, Imazamox 35 gm ai/ha
  % Weed control burn down symptoms generation Observed: 0%
[3]; 14 DAA, Imazamox 20 gm ai/ha
  % Weed control burn down symptoms generation Observed: 0%
[3]; 14 DAA, Imazamox 30 gm ai/ha
  % Weed control burn down symptoms generation Observed: 0%
[3]; 14 DAA, Imazamox 35 gm ai/ha
  % Weed control burn down symptoms generation Observed: 0%
[3]; 21 DAA, Imazamox 20 gm ai/ha
  % Weed control burn down symptoms generation Observed: 0%
[3]; 21 DAA, Imazamox 30 gm ai/ha
  % Weed control burn down symptoms generation Observed: 0%
[3]; 21 DAA, Imazamox 35 gm ai/ha
  % Weed control burn down symptoms generation Observed: 0%
[4]; at 14 days
  Control on targeted weeds, applied alone: no or very less control
[4]; at 21 days
  Control on targeted weeds, applied alone: no or very less control
[5]; 14 DAA, Imazamox 20 gm ai/ha
  % Weed control burn down symptoms generation Observed: 0%
[5]; 14 DAA, Imazamox 30 gm ai/ha
  % Weed control burn down symptoms generation Observed: 0%
[5]; 14 DAA, Imazamox 35 gm ai/ha
  % Weed control burn down symptoms generation Observed: 0%
[5]; 21 DAA, Imazamox 20 gm ai/ha
  % Weed control burn down symptoms generation Observed: 0%
[5]; 21 DAA, Imazamox 30 gm ai/ha
  % Weed control burn down symptoms generation Observed: 0%
[5]; 21 DAA, Imazamox 35 gm ai/ha
  % Weed control burn down symptoms generation Observed: 0%
[6]; 14 DAA, Imazamox 20 gm ai/ha
  % Weed control burn down symptoms generation Observed: 0%
[6]; 14 DAA, Imazamox 30 gm ai/ha
  % Weed control burn down symptoms generation Observed: 0%
[6]; 14 DAA, Imazamox 35 gm ai/ha
  % Weed control burn down symptoms generation Observed: 0%
[6]; 21 DAA, Imazamox 20 gm ai/ha
  % Weed control burn down symptoms generation Observed: 0%
[6]; 21 DAA, Imazamox 30 gm ai/ha
  % Weed control burn down symptoms generation Observed: 0%
[6]; 21 DAA, Imazamox 35 gm ai/ha
  % Weed control burn down symptoms generation Observed: 0%
[7]; 14 DAA, Imazamox 20 gm ai/ha
  % Weed control burn down symptoms generation Observed: 0%
[7]; 14 DAA, Imazamox 30 gm ai/ha
  % Weed control burn down symptoms generation Observed: 4%
[7]; 14 DAA, Imazamox 35 gm ai/ha
  % Weed control burn down symptoms generation Observed: 6%
[7]; 21 DAA, Imazamox 20 gm ai/ha
  % Weed control burn down symptoms generation Observed: 0%
[7]; 21 DAA, Imazamox 30 gm ai/ha
  % Weed control burn down symptoms generation Observed: 0%
[7]; 21 DAA, Imazamox 35 gm ai/ha
  % Weed control burn down symptoms generation Observed: 0%
[8]; 1 DAA, Imazamox 20 gm ai/ha
  Phytotoxicity score: 0
[8]; 1 DAA, Imazamox 30 gm ai/ha
  Phytotoxicity score: 0
[8]; 1 DAA, Imazamox 35 gm ai/ha
  Phytotoxicity score: 0
[8]; 3 DAA, Imazamox 20 gm ai/ha
  Phytotoxicity score: 0
[8]; 3 DAA, Imazamox 30 gm ai/ha
  Phytotoxicity score: 0
[8]; 3 DAA, Imazamox 35 gm ai/ha
  Phytotoxicity score: 0
[8]; 7 DAA, Imazamox 20 gm ai/ha
  Phytotoxicity score: 0
[8]; 7 DAA, Imazamox 30 gm ai/ha
  Phytotoxicity score: 0
[8]; 7 DAA, Imazamox 35 gm ai/ha
  Phytotoxicity score: 0
[8]; 14 DAA, Imazamox 20 gm ai/ha
  Phytotoxicity score: 0
[8]; 14 DAA, Imazamox 30 gm ai/ha
  Phytotoxicity score: 0
[8]; 14 DAA, Imazamox 35 gm ai/ha
  Phytotoxicity score: 0
[8]; 21 DAA, Imazamox 20 gm ai/ha
  Phytotoxicity score: 0
[8]; 21 DAA, Imazamox 30 gm ai/ha
  Phytotoxicity score: 0
[8]; 21 DAA, Imazamox 35 gm ai/ha
  Phytotoxicity score: 0
